Experimental data published in US20170226139A1, “CRYSTALLINE SALTS OF (Z)-O-OCTADEC-9-EN-1-YL O,O-DIHYDROGEN PHOSPHOROTHIOATE” (priority 2013, published 2017).

Columns and labels:
[1] = target: LPA2 receptors from the rat (Rattus norvegicus, UniProt A0ABK0LT65); assay: Calcium-mobilization assay (FURA-2), rat LPA2; type: cell-based
Method: (§1) We investigated structure-activity relationships across species, LPAR subtypes and between Rx100 and two known process impurities encountered in manufacture: Rx103 (‘E’ isomer) and Rx200 (oleyl phosphate and impurity, which can be an Rx100 degradant along with oleyl alcohol). Rx100, Rx103, Rx200 and native LPA were investigated at different human LPAR subtypes. In addition, the activity of these compounds was evaluated at LPA2 receptors from the rhesus, rat and mouse species. Human LPA1/2/3 subtypes were transfected into mouse embryonic fibroblasts (MEF) or rat hepatoma cells (RH7777)—both of which are normally non-responsive or null to LPA. Human LPA4 was transfected into Chinese hamster ovary (CHO) cells and LPA5 into the B103 neuroblastoma cell line. […] The B103 rat neuroblastoma cell line is endogenously nonresponsive to LPA but expresses heterologous LPA5 receptors well. […] LPAR activation elicits a G-protein-mediated transient rise in intracellular calcium level that is proportional to the concentration of LPA applied. The intracellular calcium level was quantified by the calcium-selective fluorescent indicator FURA-2 (e.g., increased intracellular calcium surge=increased fluorescence).

Human LPA2 = Human LPA2 (Homo sapiens, UniProt Q9HBW0); assay: Calcium-mobilization assay (FURA-2), human LPA2 transfected cells; type: cell-based; design: expressed in transfected cells; host or cells: mouse embryonic fibroblasts (MEF) or rat hepatoma RH7777
Method: as §1

[2] = target: LPA2 receptors from the rhesus (Macaca mulatta, UniProt I2CXV3); assay: Calcium-mobilization assay (FURA-2), rhesus LPA2; type: cell-based
Method: as §1

LPA5 = target: T1, LPA5 (Homo sapiens, UniProt Q9H1C0); assay: Calcium-mobilization assay (FURA-2), LPA5 in B103 neuroblastoma cells; type: cell-based
T1 construct: expressed in transfected cells; host or cells: B103 rat neuroblastoma
Method: as §1

[3] = Rx100 salt screening (solid formation, XRPD wet/dry, filterability, exposure to RH > 90%)
Method: We designed a complex and unconventional screening regime to screen for Rx100 crystalline salts. […] The screening regime is described as follows.
Rx100.FA in the form of a viscous liquid and eighteen counter ions were used as starting materials. These counter ions are listed and numbered in Table 4. The numbers will be used for grouping the resulting solids. The screening was performed in three stages.
Stage one (1) included screening 11 counter ions: sodium hydroxide, ammonium hydroxide, ethylenediamine, diethylamine, tromethamine (Tris), hydroxyethyl morpholine, benzathine, dimethylamino ethanol, L-Arginine, L-Lysine, L-Histidine. […] In stage 1, we performed three rounds of experiment.
In the first round of experiment, four (4) solvent systems, i.e., isopropyl alcohol (IPA), diethyl ether (DEE), IPA:water (a mixture at a volume ratio of 95:5) and tetrahydrofuran (THF), were used. Thus in this first round of screening, 44 individual base-acid reactions were conducted in 44 vials.
First, Rx100.FA and each of the bases were mixed in a vial. […] In each of the 44 vials, 211.1 μL of the prepared liquid, which was equivalent to about 35 mg of Rx100.FA, was first dispensed. Then, one equivalent (molar) of each of the 11 bases was dispensed in its corresponding vial. For example, the base sodium hydroxide was added to vials 1, 12, 23 and 34. Similarly, L-histidine was added to vials 11, 22, 33 and 44. Observations were recorded upon addition of the bases in to Rx100.FA.
Second, the solvent in each mixture was depleted. All vials containing the mixtures of Rx100.FA and each of the bases were left under moderate vacuum and nitrogen bleed at room temperature overnight to evaporate the solvent. The vials were then kept under full vacuum for about an hour to make sure the solvents (ethanol and water) are evaporated. Observations on formation of solid upon evaporation were recorded.
Third, solvents were added in each vial to induce solid formation. In each vial, a stir bar and one of the four selected solvents (each 5 volumes with respect to the Rx100.FA) were added. The vials were then capped. IPA was added to the first set of 11 vials (1-11), DEE added to the second set of 11 vials (12-22), IPA:water added to the third set of 11 vials (23-33), and THF added to the fourth set of 11 vials (34-44). The vials were left at room temperature while stirring for at least 5 hours. Observations were recorded.
The first set of XRPD analyses were recorded as “wet” samples. The solids were dried under vacuum for 1 hour and at room temperature followed by XRPD as “dry” sample. The dry solid was then exposed to relative humidity of more than 90% overnight followed by XRPD analysis. For XRPD naming, a number and a letter were used. The number refers to the counter ion and the letter refers to the chronological discovered XRPD pattern of that particular salt.
In the second round of experiment of stage one, another four (4) solvent systems, i.e., methanol (MeOH), tert-Butyl methyl ether (tBME), ethyl acetate and toluene, were used in the same 44 vials as used in the first round experiment. The solvents in all 44 vials from the first round were evaporated to dryness under vacuum and nitrogen bleed. The 4 new solvents were then added into the vials. Methanol was added to the first set of 11 vials (1-11), tBME added to the second set of 11 vials (12-22), Ethyl acetate added to the third set of 11 vials (23-33), and Toluene added to the fourth set of 11 vials (34-44). The same procedure as in the first round of experiment was followed for these new solvents and samples were taken for XRPD analysis.
In the third round of experiment, effect of base equivalence was assessed. […] After addition of the extra base, the previous solvent was evaporated and new solvents added.

Sequence of LPA2 receptors from the rhesus (I2CXV3 1-351): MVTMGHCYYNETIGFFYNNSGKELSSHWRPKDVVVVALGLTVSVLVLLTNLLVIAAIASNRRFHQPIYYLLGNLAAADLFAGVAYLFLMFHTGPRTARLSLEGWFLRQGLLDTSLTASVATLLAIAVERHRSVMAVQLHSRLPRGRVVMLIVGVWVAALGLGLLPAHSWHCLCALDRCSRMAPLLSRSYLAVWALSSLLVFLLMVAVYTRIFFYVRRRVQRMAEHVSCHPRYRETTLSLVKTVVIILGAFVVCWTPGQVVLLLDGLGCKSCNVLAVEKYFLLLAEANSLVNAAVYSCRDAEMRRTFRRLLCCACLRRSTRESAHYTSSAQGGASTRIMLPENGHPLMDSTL
T1 sequence (Q9H1C0 whole entry): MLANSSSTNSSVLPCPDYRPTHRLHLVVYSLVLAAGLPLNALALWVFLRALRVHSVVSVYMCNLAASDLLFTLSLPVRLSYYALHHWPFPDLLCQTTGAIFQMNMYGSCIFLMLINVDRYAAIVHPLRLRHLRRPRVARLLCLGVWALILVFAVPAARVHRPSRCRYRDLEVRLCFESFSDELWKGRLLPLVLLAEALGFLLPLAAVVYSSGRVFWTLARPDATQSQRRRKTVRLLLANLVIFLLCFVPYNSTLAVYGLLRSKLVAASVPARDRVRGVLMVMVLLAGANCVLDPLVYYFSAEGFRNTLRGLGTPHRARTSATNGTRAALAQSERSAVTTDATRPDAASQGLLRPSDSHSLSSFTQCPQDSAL
Sequence of LPA2 receptors from the rat (A0ABK0LT65 1-348): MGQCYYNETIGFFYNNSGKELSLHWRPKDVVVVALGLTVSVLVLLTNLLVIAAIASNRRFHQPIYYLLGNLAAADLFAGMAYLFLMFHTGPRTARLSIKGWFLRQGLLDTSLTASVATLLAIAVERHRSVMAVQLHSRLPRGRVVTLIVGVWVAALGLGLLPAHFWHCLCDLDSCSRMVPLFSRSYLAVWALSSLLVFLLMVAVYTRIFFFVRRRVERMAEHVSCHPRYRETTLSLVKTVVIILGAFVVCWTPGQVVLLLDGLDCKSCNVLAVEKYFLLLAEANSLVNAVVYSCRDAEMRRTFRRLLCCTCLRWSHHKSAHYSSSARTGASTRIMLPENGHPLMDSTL
Sequence of Human LPA2 (Q9HBW0 whole entry): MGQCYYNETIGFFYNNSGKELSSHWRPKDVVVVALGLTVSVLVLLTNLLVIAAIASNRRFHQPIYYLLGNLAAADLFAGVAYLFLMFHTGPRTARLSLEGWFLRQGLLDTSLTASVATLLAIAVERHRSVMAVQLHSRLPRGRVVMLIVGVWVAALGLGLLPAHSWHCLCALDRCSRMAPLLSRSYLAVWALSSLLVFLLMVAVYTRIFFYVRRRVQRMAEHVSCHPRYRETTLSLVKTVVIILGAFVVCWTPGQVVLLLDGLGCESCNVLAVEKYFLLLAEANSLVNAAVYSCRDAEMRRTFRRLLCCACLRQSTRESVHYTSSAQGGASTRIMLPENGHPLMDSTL

Q: For CCCCCCCC/C=C\CCCCCCCCOP(O)(O)=S [Rx100, (Z)—O-octadec-9-en-1-yl O,O-dihydrogen phosphorothioate], which EC50 [1] is on record?
A: Its EC50 is 76 nM.

Q: And the Emax ([1]; read-out: Emax (% of LPA))?
A: Its Emax is 100%.

Q: And the EC50 (Human LPA2)?
A: Its EC50 is 124 nM.

Q: What about the Emax (Human LPA2; read-out: Emax (% of LPA)) of the same compound?
A: The Emax was 100%.

Q: And the EC50 [2]?
A: The EC50 was 104 nM.

Q: And the Emax ([2]; read-out: Emax (% of LPA))?
A: Its Emax is 100%.

Q: What about the EC50 (LPA5) of the same compound?
A: The EC50 was 100 nM.

Q: What about the Emax (LPA5; B103, read-out: Emax (% of LPA)) of the same compound?
A: The Emax was 104%.

Q: Which “Stability at high humidity” value [3] does the source give for CCCCCCCC/C=C\CCCCCCCCOP(O)(O)=S [Rx100.L-Lysine, (Z)—O-octadec-9-en-1-yl O,O-dihydrogen phosphorothioate] here?
A: Its value is “stable at high humidity”.

Q: What about the Crystallinity ([3]; Rx100 salt formed with the named base, XRPD, listed as Rx100.L-Lysine salt) of the same compound?
A: Its Crystallinity is “showed crystallinity”.

Q: And the Filterability ([3]; Rx100 salt formed with the named base, listed as Rx100.L-Lysine salt)?
A: The Filterability was “filterable”.
